{"source": "patent US20030175438A1", "about": "“Treatments of solid substrates to enhance durability of treatments placed thereon” (priority 2002, published 2003)", "test": "Bromphenol Blue (BPB) Extraction Method, spectrophotometric at 595 nm (modified CTM 0824), on treated fabric", "type": "physicochemical", "conditions": "for % EXTRACTION CHANGE / EXTRACTION CHANGE / % BPB Extraction (change on boiling): boiled vs not boiled; for Boiling Durability - % BPB Extraction: Boil 30 min., Table XIV; for Strike Rate - % BPB Extraction: No Boil, Table XIII; for Boiled in H20 % Extraction / Change % Extraction / No Boil % Extraction: Table XI"}
{"smiles": "CCCCCCCCCCCCCCCCCC[N+](C)(C)CCC[Si](OC)(OC)OC.[Cl-]", "note": "[AMT, N, N-dimethyl-N-Octadecyl-3-(trimethoxysilyl)propanaminium chloride]", "values": [{"measurement": "% EXTRACTION CHANGE", "setting": "NYLON, Table IX", "value": "−66", "unit": "%"}, {"measurement": "EXTRACTION CHANGE", "setting": "NYLON, Table VI", "value": "−71", "unit": "%"}, {"measurement": "% EXTRACTION CHANGE", "setting": "NYLON, Table VII", "value": "−69", "unit": "%"}, {"measurement": "% EXTRACTION CHANGE", "setting": "NYLON, Table XV", "value": "−59", "unit": "%"}, {"measurement": "% EXTRACTION CHANGE", "setting": "NYLON, Table XVII", "value": "−54", "unit": "%"}, {"measurement": "% BPB EXTRACTION @ 595 nm", "setting": "NYLON, boiled, Table VII", "value": 18, "unit": "%"}, {"measurement": "% Extraction @ 595 nm", "setting": "NYLON, not boiled, Table I", "value": 82, "unit": "%"}, {"measurement": "% BPB EXTRACTION @ 595 nm", "setting": "NYLON, not boiled, Table III", "value": 77, "unit": "%"}, {"measurement": "% Extraction @ 595 nm", "setting": "NYLON, not boiled, Table IV", "value": 70, "unit": "%"}, {"measurement": "% Extraction @ 595 nm", "setting": "NYLON, not boiled, Table VI", "value": 82, "unit": "%"}, {"measurement": "% BPB EXTRACTION @ 595 nm", "setting": "NYLON, not boiled, Table VII", "value": 87, "unit": "%"}, {"measurement": "% BPB EXTRACTION @ 595 nm", "setting": "NYLON, not boiled, oven dried 130° C. 5 minutes, Table XV", "value": 89, "unit": "%"}, {"measurement": "Boiling Durability - % BPB Extraction", "setting": "Nylon", "value": 14.42, "unit": "%"}, {"measurement": "Boiling Durability - % BPB Extraction", "setting": "Nylon, treatment at pH = 11", "value": 17.83, "unit": "%"}, {"measurement": "Boiling Durability - % BPB Extraction", "setting": "PET Staple", "value": 6.82, "unit": "%"}, {"measurement": "Boiling Durability - % BPB Extraction", "setting": "PET Staple, treatment at pH = 11", "value": 37.6, "unit": "%"}, {"measurement": "Strike Rate - % BPB Extraction", "setting": "PET Staple, 0.25 grams of fabric", "value": 17.36, "unit": "%"}, {"measurement": "Boiling Durability - % BPB Extraction", "setting": "PET, treatment at pH = 11", "value": 14.38, "unit": "%"}, {"measurement": "Strike Rate - % BPB Extraction", "setting": "PET, 0.25 grams of fabric", "value": 4.98, "unit": "%"}, {"measurement": "% Extraction @ 595 nm", "setting": "PET, boiled 30 minutes, Table I", "value": 18, "unit": "%"}, {"measurement": "% BPB EXTRACTION @ 595 nm", "setting": "PET, boiled 30 minutes, Table III", "value": 20, "unit": "%"}, {"measurement": "% Extraction @ 595 nm", "setting": "PET, boiled 30 minutes, Table VI", "value": 26, "unit": "%"}, {"measurement": "Boiling Durability % BPB EXTRACTION @ 595 nm", "setting": "PET, boiled 30 minutes, Table XVII", "value": 19, "unit": "%"}, {"measurement": "% BPB Extraction (change on boiling)", "setting": "PET, Table I", "value": "−71", "unit": "%"}, {"measurement": "% EXTRACTION CHANGE", "setting": "PET, Table III", "value": "−74", "unit": "%"}, {"measurement": "% EXTRACTION CHANGE", "setting": "PET, Table IX", "value": "−73", "unit": "%"}, {"measurement": "EXTRACTION CHANGE", "setting": "PET, Table VI", "value": "−63", "unit": "%"}, {"measurement": "% EXTRACTION CHANGE", "setting": "PET, Table VII", "value": "−72", "unit": "%"}, {"measurement": "% EXTRACTION CHANGE", "setting": "PET, Table XV", "value": "−50", "unit": "%"}, {"measurement": "% BPB EXTRACTION @ 595 nm", "setting": "PET, boiled, Table IX", "value": 14, "unit": "%"}, {"measurement": "% BPB EXTRACTION @ 595 nm", "setting": "PET, boiled, Table VII", "value": 91, "unit": "%"}, {"measurement": "% Extraction @ 595 nm", "setting": "PET, not boiled, Table I", "value": 89, "unit": "%"}, {"measurement": "% BPB EXTRACTION @ 595 nm", "setting": "PET, not boiled, Table IX", "value": 87, "unit": "%"}, {"measurement": "% Extraction @ 595 nm", "setting": "PET, not boiled, Table VI", "value": 89, "unit": "%"}, {"measurement": "% BPB EXTRACTION @ 595 nm", "setting": "PET, not boiled, Table VII", "value": 93, "unit": "%"}, {"measurement": "Boiling Durability % BPB EXTRACTION @ 595 nm", "setting": "PET, not boiled, Table XVII", "value": 83, "unit": "%"}, {"measurement": "% BPB EXTRACTION @ 595 nm", "setting": "PET, not boiled, oven dried 130° C. 5 minutes, Table XV", "value": 86, "unit": "%"}, {"measurement": "% BPB EXTRACTION @ 595 nm", "setting": "PPNW, boiled 30 minutes, Table XV", "value": 45, "unit": "%"}, {"measurement": "Boiling Durability % BPB EXTRACTION @ 595 nm", "setting": "PPNW, boiled 30 minutes, Table XVII", "value": 37, "unit": "%"}, {"measurement": "% EXTRACTION CHANGE", "setting": "PPNW, Table XV", "value": "−40", "unit": "%"}, {"measurement": "% EXTRACTION CHANGE", "setting": "PPNW, Table XVII", "value": "−40", "unit": "%"}, {"measurement": "Boiling Durability % BPB EXTRACTION @ 595 nm", "setting": "PPNW, not boiled, Table XVII", "value": 77, "unit": "%"}, {"measurement": "% BPB EXTRACTION @ 595 nm", "setting": "PPNW, not boiled, oven dried 130° C. 5 minutes, Table XV", "value": 85, "unit": "%"}, {"measurement": "% Extraction @ 595 nm", "setting": "RAYON, boiled 30 minutes, Table I", "value": 35, "unit": "%"}, {"measurement": "% BPB EXTRACTION @ 595 nm", "setting": "RAYON, boiled 30 minutes, Table III", "value": 50, "unit": "%"}, {"measurement": "% Extraction @ 595 nm", "setting": "RAYON, boiled 30 minutes, Table VI", "value": 44, "unit": "%"}, {"measurement": "% BPB Extraction (change on boiling)", "setting": "RAYON, Table I", "value": "−55", "unit": "%"}, {"measurement": "% EXTRACTION CHANGE", "setting": "RAYON, Table III", "value": "−44", "unit": "%"}, {"measurement": "% EXTRACTION CHANGE", "setting": "RAYON, Table IX", "value": "−40", "unit": "%"}, {"measurement": "EXTRACTION CHANGE", "setting": "RAYON, Table VI", "value": "−50", "unit": "%"}, {"measurement": "% EXTRACTION CHANGE", "setting": "RAYON, Table VII", "value": "−50", "unit": "%"}, {"measurement": "% BPB EXTRACTION @ 595 nm", "setting": "RAYON, boiled, Table IX", "value": 52, "unit": "%"}, {"measurement": "% BPB EXTRACTION @ 595 nm", "setting": "RAYON, boiled, Table VII", "value": 42, "unit": "%"}, {"measurement": "% Extraction @ 595 nm", "setting": "RAYON, not boiled, Table I", "value": 90, "unit": "%"}, {"measurement": "% BPB EXTRACTION @ 595 nm", "setting": "RAYON, not boiled, Table III", "value": 94, "unit": "%"}, {"measurement": "% BPB EXTRACTION @ 595 nm", "setting": "RAYON, not boiled, Table IX", "value": 92, "unit": "%"}, {"measurement": "% Extraction @ 595 nm", "setting": "RAYON, not boiled, Table VI", "value": 94, "unit": "%"}, {"measurement": "% BPB EXTRACTION @ 595 nm", "setting": "RAYON, not boiled, Table VII", "value": 92, "unit": "%"}, {"measurement": "Boiling Durability - % BPB Extraction", "setting": "Rayon", "value": 9.88, "unit": "%"}, {"measurement": "Boiling Durability - % BPB Extraction", "setting": "Rayon, treatment at pH = 11", "value": 21.36, "unit": "%"}, {"measurement": "Strike Rate - % BPB Extraction", "setting": "Rayon, treatment at pH = 11", "value": 19.5, "unit": "%"}, {"measurement": "Boiled in H20 % Extraction", "setting": "cure: 130° C. for 5 Min", "value": 21, "unit": "%"}, {"measurement": "Change % Extraction", "setting": "cure: 130° C. for 5 Min", "value": "−36", "unit": "%"}, {"measurement": "No Boil % Extraction", "setting": "cure: 130° C. for 5 Min", "value": 57, "unit": "%"}, {"measurement": "Boiled in H20 % Extraction", "setting": "cure: Air Dried", "value": 21, "unit": "%"}, {"measurement": "Change % Extraction", "setting": "cure: Air Dried", "value": "−46", "unit": "%"}, {"measurement": "No Boil % Extraction", "setting": "cure: Air Dried", "value": 67, "unit": "%"}]}
